Data taken from the supplement of paper PMC10307832.

Key:
Assay in all cases: relative viability (nuclei count vs DMSO), 5 days (fraction); higher = more cells survive
ABC-1 = test system: ABC-1
Summary of the method: (§1)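 Lung cancer cell lines were pin-tool dosed in 1536-well plates on the day after seeding, with either a lone drug or a fixed anchor-drug dose plus five library-drug doses (not always all listed) in √10 steps. Nuclei were counted on 4× images after 5 days. Relative viability is the ratio of treated-well to vehicle-well nuclei counts, with each value a median of duplicate plates.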

NCI-H520 = test system: NCI-H520
Summary of the method: as §1

NCI-H2405 = test system: NCI-H2405
Summary of the method: as §1

NCI-H1650 = test system: NCI-H1650
Summary of the method: as §1

LK-2 = test system: LK-2
Summary of the method: as §1

RERF-LC-KJ = test system: RERF-LC-KJ
Summary of the method: as §1

H3255 = test system: H3255
Summary of the method: as §1

HCC-15 = test system: HCC-15
Summary of the method: as §1

HCC-827 = test system: HCC-827
Summary of the method: as §1

NCI-H661 = test system: NCI-H661
Summary of the method: as §1

NCI-H322M = test system: NCI-H322M
Summary of the method: as §1

PC-14 = test system: PC-14
Summary of the method: as §1

NCI-H1437 = test system: NCI-H1437
Summary of the method: as §1

NCI-H2342 = test system: NCI-H2342
Summary of the method: as §1

COR-L23 = test system: COR-L23
Summary of the method: as §1

SW 1573 = test system: SW 1573
Summary of the method: as §1

EKVX = test system: EKVX
Summary of the method: as §1

NCI-H1355 = test system: NCI-H1355
Summary of the method: as §1

PC-3 [JPC-3] = test system: PC-3 [JPC-3]
Summary of the method: as §1

NCI-H1734 = test system: NCI-H1734
Summary of the method: as §1

Compound: O=C(O)c1ccc(-c2c[nH]c3ncc(-c4ccccc4)cc23)cc1C1CCCC1 + Nc1ncn([C@H]2C[C@H](O)[C@@H](CO)O2)c(=O)n1 [Decitabine] (partner 2 µM)
- relative viability (ABC-1; first compound 0.04 µM): 1.1
- relative viability (ABC-1; first compound 0.1265 µM): 1.1
- relative viability (ABC-1; first compound 0.4 µM): 0.891
- relative viability (ABC-1; first compound 1.265 µM): 0.931
- relative viability (NCI-H520; first compound 0.04 µM): 0.493
- relative viability (NCI-H520; first compound 0.1265 µM): 0.489
- relative viability (NCI-H520; first compound 0.4 µM): 0.5
- relative viability (NCI-H520; first compound 1.265 µM): 0.358
- relative viability (NCI-H2405; first compound 0.04 µM): 0.71
- relative viability (NCI-H2405; first compound 0.1265 µM): 0.762
- relative viability (NCI-H2405; first compound 0.4 µM): 0.676
- relative viability (NCI-H2405; first compound 1.265 µM): 0.515
- relative viability (NCI-H1650; first compound 0.04 µM): 0.409
- relative viability (NCI-H1650; first compound 0.1265 µM): 0.345
- relative viability (NCI-H1650; first compound 0.4 µM): 0.404
- relative viability (NCI-H1650; first compound 1.265 µM): 0.263
- relative viability (LK-2; first compound 0.04 µM): 0.253
- relative viability (LK-2; first compound 0.1265 µM): 0.327
- relative viability (LK-2; first compound 0.4 µM): 0.28
- relative viability (LK-2; first compound 1.265 µM): 0.333
- relative viability (RERF-LC-KJ; first compound 0.04 µM): 0.718
- relative viability (RERF-LC-KJ; first compound 0.1265 µM): 0.718
- relative viability (RERF-LC-KJ; first compound 0.4 µM): 0.596
- relative viability (RERF-LC-KJ; first compound 1.265 µM): 0.468
- relative viability (H3255; first compound 0.04 µM): 0.64
- relative viability (H3255; first compound 0.1265 µM): 0.477
- relative viability (H3255; first compound 0.4 µM): 0.513
- relative viability (H3255; first compound 1.265 µM): 0.495
- relative viability (HCC-15; first compound 0.04 µM): 0.641
- relative viability (HCC-15; first compound 0.1265 µM): 0.673
- relative viability (HCC-15; first compound 0.4 µM): 0.608
- relative viability (HCC-15; first compound 1.265 µM): 0.381
- relative viability (HCC-827; first compound 0.04 µM): 0.263
- relative viability (HCC-827; first compound 0.1265 µM): 0.316
- relative viability (HCC-827; first compound 0.4 µM): 0.273
- relative viability (HCC-827; first compound 1.265 µM): 0.337
- relative viability (NCI-H661; first compound 0.04 µM): 0.518
- relative viability (NCI-H661; first compound 0.1265 µM): 0.586
- relative viability (NCI-H661; first compound 0.4 µM): 0.534
- relative viability (NCI-H661; first compound 1.265 µM): 0.524
- relative viability (NCI-H322M; first compound 0.04 µM): 0.772
- relative viability (NCI-H322M; first compound 0.1265 µM): 0.704
- relative viability (NCI-H322M; first compound 0.4 µM): 0.723
- relative viability (NCI-H322M; first compound 1.265 µM): 0.66
- relative viability (PC-14; first compound 0.04 µM): 0.19
- relative viability (PC-14; first compound 0.1265 µM): 0.211
- relative viability (PC-14; first compound 0.4 µM): 0.213
- relative viability (PC-14; first compound 1.265 µM): 0.195
- relative viability (NCI-H1437; first compound 0.04 µM): 0.533
- relative viability (NCI-H1437; first compound 0.1265 µM): 0.572
- relative viability (NCI-H1437; first compound 0.4 µM): 0.517
- relative viability (NCI-H1437; first compound 1.265 µM): 0.336
- relative viability (NCI-H2342; first compound 0.04 µM): 0.724
- relative viability (NCI-H2342; first compound 0.1265 µM): 0.663
- relative viability (NCI-H2342; first compound 0.4 µM): 0.836
- relative viability (NCI-H2342; first compound 1.265 µM): 0.731
- relative viability (COR-L23; first compound 0.04 µM): 0.446
- relative viability (COR-L23; first compound 0.1265 µM): 0.414
- relative viability (COR-L23; first compound 0.4 µM): 0.365
- relative viability (COR-L23; first compound 1.265 µM): 0.327
- relative viability (SW 1573; first compound 0.04 µM): 0.403
- relative viability (SW 1573; first compound 0.1265 µM): 0.546
- relative viability (SW 1573; first compound 0.4 µM): 0.505
- relative viability (SW 1573; first compound 1.265 µM): 0.407
- relative viability (EKVX; first compound 0.04 µM): 0.341
- relative viability (EKVX; first compound 0.1265 µM): 0.362
- relative viability (EKVX; first compound 0.4 µM): 0.336
- relative viability (EKVX; first compound 1.265 µM): 0.368
- relative viability (NCI-H1355; first compound 0.04 µM): 0.337
- relative viability (NCI-H1355; first compound 0.1265 µM): 0.331
- relative viability (NCI-H1355; first compound 0.4 µM): 0.408
- relative viability (NCI-H1355; first compound 1.265 µM): 0.307
- relative viability (PC-3 [JPC-3]; first compound 0.04 µM): 0.824
- relative viability (PC-3 [JPC-3]; first compound 0.1265 µM): 0.835
- relative viability (PC-3 [JPC-3]; first compound 0.4 µM): 0.939
- relative viability (PC-3 [JPC-3]; first compound 1.265 µM): 0.74
- relative viability (NCI-H1734; first compound 0.04 µM): 0.528
- relative viability (NCI-H1734; first compound 0.1265 µM): 0.499
- relative viability (NCI-H1734; first compound 0.4 µM): 0.461
- relative viability (NCI-H1734; first compound 1.265 µM): 0.437
